According to US20260159474A1, “Aminoindane Compounds and Compositions and Methods of Their Therapeutic Use” (Solvonis Therapeutics Ireland Holdings Limited, priority 2021, published 2026):
“Also recorded” adds a separate entry of the source.

Columns and labels:
[1] = Rat body temperature after IP administration; format: in vivo, Sprague Dawley rats; settings: 200 minutes after injection
Method: Methods and Procedure: This study was conducted in compliance with previously described procedures to assure data integrity, adherence to GLP regulations, and standard preclinical study and surgery procedures. The in vivo microdialysis technique was applied to measure the over-time variations of DA, 5-HT, and NE extracellular (EC) concentrations in conscious, freely-moving Sprague Dawley rats. At the end of each experimental session (200 minutes after injection), body temperature (° C.) of Sprague Dawley rats was monitored using a digital thermometer with a rectal probe.

[2] = Brain tissue binding by equilibrium dialysis, rat brain homogenate; format: in vitro ADME; settings: male, Sprague Dawley, pH 7.4, read-out: Rat brain tissue binding (Fu %)
Method: Methods: Plasma protein binding and blood tissue binding of test items (0.5 μM) was determined using biological samples from male Sprague Dawley (SD) rats and humans. […] Dexamethasone was used as a control compound for lung tissue binding. Various biological samples were spiked with test compounds according to the methods that follow.
Preparation of brain homogenate samples: Test items were dissolved in DMSO (or an appropriate solvent) to give a 10 mM solution. Further dilutions, to obtain […] working solutions (WS), were then prepared using 50% acetonitrile in Milli Q water. These 100×WS were used to spike the brain homogenate to obtain a final concentration of 5 μM. From this initial spiking solution, control samples (n=3) referred to as T=0, were immediately extracted by protein precipitation.
An equilibrium dialysis method was performed to determine protein binding in the various biological samples described herein. Materials were prepared and methods were in accordance with the following procedures.
Membranes were prepared for use in the equilibrium dialysis experiment. by soaking in deionized water for at least 60 minutes. After this period, 20% of pure ethanol was added, and the membranes were left in this solution for at least 20 minutes. The membranes were then rinsed in Milli-Q water prior to use.
To initiate the experiment, 150 μL of test item-free buffer (isotonic phosphate buffer for plasma and blood, artificial CSF buffer for brain or HBSS buffer for lung) was dispensed on one half-well of a 96-well dialyzer apparatus (HTDialysis LLC), and 150 μL of spiked matrix (plasma, blood, brain or lung) was loaded on the other half-well. Alternative volumes may be used according to the operating instructions of HTDialysis.
The artificial cerebrospinal fluid (CSF) buffer was prepared as follows, NaCl 3.652 g, KCl 93.2 mg, MgCl2 119.96 mg, CaCl2 92.61 mg, Na2HPO4*H2O 268.0 mg. These were dissolved in […] of MilliQ water, and the pH was adjusted to a pH of 7.4 with H3PO4.
Dialysis buffer was prepared by dissolving Na2HPO4 8.69 g, KH2PO4 1.90 g, and NaCl 4.11 g in […] of MilliQ water, and adjusting the pH to 7.4 with H3PO4. […]
Samples were then injected onto an HPLC MS/MS or UPLC MS/MS system. In order to control the integrity of the membrane after the dialysis process, the presence of protein was assessed in the buffer compartment. […]
Samples were analyzed in a LC-MS/MS system using an analytical method to monitor the compound to internal standard peak area ratios as representative of the compound concentrations. Alternatively, samples were analyzed by RapidFire. […]

| Compound | change in rat body temperature (rectal) relative to vehicle [1] | fraction unbound at 5 h, 5 μM [2] |
| --- | --- | --- |
| CNC(C)Cc1ccc2c(c1)OCO2 (stereo not drawn) [MDMA] | 1.6 °C | – |
| COC(=O)c1ccc2c(c1)CC(N)C2 (stereo not drawn) [CMP-405, 2-aminoindane-5-methylcarboxylate] | lower than the change observed following administration of MDMA; also recorded: significantly lower than the change in temperature caused by MDMA | 0.24 |
| COc1ccc2c(c1)CC(N)C2 (stereo not drawn) [MEAI, 5-methoxy-2-aminoindane] | – | 0.33 |
| COC(=O)c1cc2c(cc1OC)CC(N)C2 (stereo not drawn) [CMP-401] | – | > 0.5 |
| COc1cc2c(cc1C)CC(N)C2 (stereo not drawn) [MMAI, 5-methoxy-6-methyl-2-aminoindane] | – | 0.12 |
